Reference: ChEMBL document CHEMBL1126980, “New, potent anthelmintic and acaricidal agents: 4-deoxy-4-thio-substituted avermectin derivatives” (Bioorg Med Chem Lett, 1993)
Converted amounts (≈) assume the structure as drawn.

Tests used:
[1] = tested on: Artemia salina; assay: Tested in vitro for the biological efficacy using Artemia salina (brine shrimp) immobilization assay; assay type: functional
[2] = tested on: Ovis aries; assay: Tested for the anthelmintic efficacy against Oesphagostomum columbianum at 0.1 mg/kg; range is 91-100%; assay type: functional
[3] = tested on: Ovis aries; assay: Tested for the anthelmintic efficacy against Ostertagia circumcincta at 0.1 mg/kg; range is 76-90%; assay type: functional
[4] = tested on: Ovis aries; assay: Tested for the anthelmintic efficacy against Trichostrongylus axei at 0.1 mg/kg; range is 91-100%; assay type: functional
[5] = tested on: Ovis aries; assay: Tested for the anthelmintic efficacy against Cooperia curticei at 0.1 mg/kg; range is 91-100%; assay type: functional
[6] = tested on: Trichostrongylus colubriformis; assay: Tested in vivo for the biological efficacy using Trichostrongylus colubriformis gerbil assay; assay type: functional
[7] = tested on: Caenorhabditis elegans; assay: Tested in vitro for the biological efficacy using Caenorhabditis elegans binding assay; assay type: functional, organism-based
[8] = tested on: Ovis aries; assay: Tested for anthelmintic efficacy against Haemonchus contortus at 0.1 mg/kg; range is 91-100%; assay type: functional
[9] = tested on: Tetranychus urticae; assay: Tested for acaricidal efficacy using a Tetranychus urticae (two-spotted spider mite, TSSM) contact assay; assay type: functional; parameters: concentration or dose not given beside the values
[10] = tested on: Ovis aries; assay: Tested for the anthelmintic efficacy against Trichostrongylus colubriformis at 0.1 mg/kg; range is 76-90%; assay type: functional
[11] = tested on: Ovis aries; assay: Tested for the anthelmintic efficacy against Trichostrongylus colubriformis at 0.1 mg/kg; range is 91-100%; assay type: functional
[12] = tested on: Ovis aries; assay: Tested for the anthelmintic efficacy against Trichostrongylus axei at 0.1 mg/kg; range is 76-90%; assay type: functional
[13] = tested on: Ovis aries; assay: Tested for the anthelmintic efficacy against Ostertagia circumcincta at 0.1 mg/kg; range is 91-100%; assay type: functional
[14] = tested on: Ovis aries; assay: Tested for the anthelmintic efficacy against Cooperia curticei at 0.1 mg/kg; assay type: functional
[15] = tested on: Ovis aries; assay: Tested for the anthelmintic efficacy against Trichostrongylus axei at 0.1 mg/kg; range is 51-75%; assay type: functional
[16] = tested on: Ovis aries; assay: Tested for the anthelmintic efficacy against Ostertagia circumcincta at 0.1 mg/kg; assay type: functional
[17] = tested on: Ovis aries; assay: Tested for the anthelmintic efficacy against Cooperia curticei at 0.1 mg/kg; range is 51-75%; assay type: functional
[18] = tested on: Ovis aries; assay: Tested for the anthelmintic efficacy against Trichostrongylus colubriformis at 0.1 mg/kg; range is 51-75%; assay type: functional
[19] = tested on: Ovis aries; assay: Tested for the anthelmintic efficacy against Oesphagostomum columbianum at 0.15 mg/kg; assay type: functional
[20] = tested on: Ovis aries; assay: Tested for anthelmintic efficacy against Haemonchus contortus at 0.15 mg/kg; range is 76-90%; assay type: functional
[21] = tested on: Ovis aries; assay: Tested for the anthelmintic efficacy against Ostertagia circumcincta at 0.15 mg/kg; range is 76-90%; assay type: functional
[22] = tested on: Ovis aries; assay: Tested for the anthelmintic efficacy against Cooperia curticei at 0.15 mg/kg; range is 91-100%; assay type: functional
[23] = tested on: Ovis aries; assay: Tested for the anthelmintic efficacy against Trichostrongylus axei at 0.15 mg/kg; range is 91-100%; assay type: functional
[24] = tested on: Ovis aries; assay: Tested for the anthelmintic efficacy against Trichostrongylus colubriformis at 0.15 mg/kg; range is 91-100%; assay type: functional
[25] = tested on: Ovis aries; assay: Tested for the anthelmintic efficacy against Cooperia curticei at 0.1 mg/kg; range is 76-90%; assay type: functional
[26] = tested on: Ovis aries; assay: Tested for the anthelmintic efficacy against Ostertagia circumcincta at 0.1 mg/kg; range is 51-75%; assay type: functional

| Structure (SMILES) | IC100 [1] [ng/mL] | Reduction [2] [%] | Reduction [4] [%] | Reduction [5] [%] | ED85 [6] [mg/kg] | IC50 [7] [ng/mL] | Reduction [8] [%] | Mortality [9] [%] | Reduction [10] [%] | Reduction [13] [%] | Reduction [14] [%] | also measured |
| --- | --- | --- | --- | --- | --- | --- | --- | --- | --- | --- | --- | --- |
| CCC(C)[C@H]1O[C@]2(C=C[C@@H]1C)C[C@@H]1C[C@@H](C/C=C(\C)[C@@H](O[C@H]3C[C@H](OC)[C@@H](O[C@H]4C[C@H](OC)[C@H](SC)[C@H](C)O4)[C@H](C)O3)[C@@H](C)/C=C/C=C3\CO[C@@H]4[C@H](O)C(C)=C[C@@H](C(=O)O1)[C@]34O)O2 (some centres undefined) | 1730 | 91 | 91 | 91 | 0.063 | 0.06 (≈ 0.0664 nM) | 91 | 92 | 76 | – | – | Reduction [3]: 76% |
| CCC(C)[C@H]1O[C@]2(C=C[C@@H]1C)C[C@@H]1C[C@@H](C/C=C(\C)[C@@H](O[C@H]3C[C@H](OC)[C@@H](O[C@H]4C[C@H](OC)[C@H](SCCOC(C)=O)[C@H](C)O4)[C@H](C)O3)[C@@H](C)/C=C/C=C3\CO[C@@H]4[C@H](O)C(C)=C[C@@H](C(=O)O1)[C@]34O)O2 (some centres undefined) | 1730 | 91 | – | – | 0.125 | 0.525 (≈ 0.538 nM) | 91 | 68 | – | 91 | <50 | Reduction [11]: 91%; Reduction [12]: 76% |
| CCC(C)[C@H]1O[C@]2(C=C[C@@H]1C)C[C@@H]1C[C@@H](C/C=C(\C)[C@@H](O[C@H]3C[C@H](OC)[C@@H](O[C@H]4C[C@H](OC)[C@@H](SCCO)[C@H](C)O4)[C@H](C)O3)[C@@H](C)/C=C/C=C3\CO[C@@H]4[C@H](O)C(C)=C[C@@H](C(=O)O1)[C@]34O)O2 (some centres undefined) | 870 | 91 | – | – | 0.063 | 0.091 (≈ 0.0975 nM) | 91 | 70 | 76 | – | <50 | Reduction [15]: 51%; Reduction [16]: <50% |
| CCC(C)[C@H]1O[C@]2(C=C[C@@H]1C)C[C@@H]1C[C@@H](C/C=C(\C)[C@@H](O[C@H]3C[C@H](OC)[C@@H](O[C@H]4C[C@H](OC)[C@H](S(=O)(=O)CCO)[C@H](C)O4)[C@H](C)O3)[C@@H](C)/C=C/C=C3\CO[C@@H]4[C@H](O)C(C)=C[C@@H](C(=O)O1)[C@]34O)O2 (some centres undefined) | 870 | 91 | 91 | – | 0.063 | 0.363 (≈ 0.376 nM) | 91 | 34 | 76 | 91 | – | Reduction [17]: 51% |
| CCC(C)[C@H]1O[C@]2(C=C[C@@H]1C)C[C@@H]1C[C@@H](C/C=C(\C)[C@@H](O[C@H]3C[C@H](OC)[C@@H](O[C@H]4C[C@H](OC)[C@H](SCCNC(C)=O)[C@H](C)O4)[C@H](C)O3)[C@@H](C)/C=C/C=C3\CO[C@@H]4[C@H](O)C(C)=C[C@@H](C(=O)O1)[C@]34O)O2 (some centres undefined) | 870 | 91 | 91 | 91 | 0.031 | 0.127 (≈ 0.13 nM) | 91 | 29 | – | 91 | – | Reduction [18]: 51% |
| CCC(C)[C@H]1O[C@]2(C=C[C@@H]1C)C[C@@H]1C[C@@H](C/C=C(\C)[C@@H](O[C@H]3C[C@H](OC)[C@@H](O[C@H]4C[C@H](OC)[C@@H](S(C)(=O)=O)[C@H](C)O4)[C@H](C)O3)[C@@H](C)/C=C/C=C3\CO[C@@H]4[C@H](O)C(C)=C[C@@H](C(=O)O1)[C@]34O)O2 (some centres undefined) | 430 | 91 | 91 | 91 | 0.125 | 0.098 (≈ 0.105 nM) | 91 | 85 | – | – | – | Reduction [11]: 91%; Reduction [3]: 76% |
| CCC(C)[C@H]1O[C@]2(C=C[C@@H]1C)C[C@@H]1C[C@@H](C/C=C(\C)[C@@H](O[C@H]3C[C@H](OC)[C@H](S(=O)(=O)CCO)[C@H](C)O3)[C@@H](C)/C=C/C=C3\CO[C@@H]4[C@H](O)C(C)=C[C@@H](C(=O)O1)[C@]34O)O2 (some centres undefined) | 870 | – | – | – | > 0.25 | – | – | 94 | – | – | – | Reduction [19]: <50%; Reduction [20]: 76%; Reduction [21]: 76%; Reduction [22]: 91%; Reduction [23]: 91%; Reduction [24]: 91% |
| CCC(C)[C@H]1O[C@]2(C=C[C@@H]1C)C[C@@H]1C[C@@H](C/C=C(\C)[C@@H](O[C@H]3C[C@H](OC)[C@@H](O[C@H]4C[C@H](OC)[C@H](SCCO)[C@H](C)O4)[C@H](C)O3)[C@@H](C)/C=C/C=C3\CO[C@@H]4[C@H](O)C(C)=C[C@@H](C(=O)O1)[C@]34O)O2 (some centres undefined) | 650 | 91 | 91 | – | 0.063 | 0.784 (≈ 0.84 nM) | 91 | 55 | 76 | 91 | <50 | – |
| CCC(C)[C@H]1O[C@]2(C=C[C@@H]1C)C[C@@H]1C[C@@H](C/C=C(\C)[C@@H](O[C@H]3C[C@H](OC)[C@@H](O[C@H]4C[C@H](OC)[C@@H](SC)[C@H](C)O4)[C@H](C)O3)[C@@H](C)/C=C/C=C3\CO[C@@H]4[C@H](O)C(C)=C[C@@H](C(=O)O1)[C@]34O)O2 (some centres undefined) | 3470 | 91 | – | – | 0.25 | 0.226 (≈ 0.25 nM) | 91 | 98 | – | – | – | Reduction [25]: 76%; Reduction [26]: 51%; Reduction [12]: 76%; Reduction [18]: 51% |
